From paper doi:10.1101/2024.08.25.609621 (bioRxiv, 2024)
Where “and” joins values, the source holds several entries; their conditions need not be identical. Equal values may be shown once. Read-outs that look alike come from different tables or passages of the source.

What was measured:
[1] = biological target: T1, human macrodomain Targ1 (Homo sapiens, UniProt Q9Y530); assay: HTRF peptide displacement assay, Targ1; assay type: binding
T1 sequence (Q9Y530 with tags, fused parts or gaps): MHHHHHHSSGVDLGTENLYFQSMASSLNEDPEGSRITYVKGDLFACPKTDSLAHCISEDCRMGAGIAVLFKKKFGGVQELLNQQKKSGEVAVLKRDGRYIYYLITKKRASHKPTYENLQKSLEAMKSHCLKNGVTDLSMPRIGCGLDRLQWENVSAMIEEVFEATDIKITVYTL

[2] = Microsomal stability; assay type: in vitro ADME, mouse
Method: The assay was carried out in 96-well plates at 37°C. Reaction mixtures (25 μl) contained a final concentration of 1 μM compound, 0.5 mg/ml liver microsomes protein, and 1 mM NADPH and/or 1 mM UDPGA (with alamethicin) in 100 mM potassium phosphate (pH 7.4) with 3 mM MgCl2. After 0, 15, 30, and 60 minutes, 150 μl of quench solution (100% acetonitrile with 0.1% formic acid) with internal standard was transferred to each well. Reactions containing the same components except the NADPH were prepared as the negative control. Plates were sealed, vortexed, and centrifuged at 4°C for 15 minutes at 4000 rpm.
The extent of metabolism was calculated as the disappearance of compounds, compared to the 0-min time incubation.

[3] = biological target: T2, human macrodomain MacroD2 (Homo sapiens, UniProt A1Z1Q3); assay: HTRF peptide displacement assay, MacroD2; assay type: binding
T2 sequence (A1Z1Q3 with tags, fused parts or gaps): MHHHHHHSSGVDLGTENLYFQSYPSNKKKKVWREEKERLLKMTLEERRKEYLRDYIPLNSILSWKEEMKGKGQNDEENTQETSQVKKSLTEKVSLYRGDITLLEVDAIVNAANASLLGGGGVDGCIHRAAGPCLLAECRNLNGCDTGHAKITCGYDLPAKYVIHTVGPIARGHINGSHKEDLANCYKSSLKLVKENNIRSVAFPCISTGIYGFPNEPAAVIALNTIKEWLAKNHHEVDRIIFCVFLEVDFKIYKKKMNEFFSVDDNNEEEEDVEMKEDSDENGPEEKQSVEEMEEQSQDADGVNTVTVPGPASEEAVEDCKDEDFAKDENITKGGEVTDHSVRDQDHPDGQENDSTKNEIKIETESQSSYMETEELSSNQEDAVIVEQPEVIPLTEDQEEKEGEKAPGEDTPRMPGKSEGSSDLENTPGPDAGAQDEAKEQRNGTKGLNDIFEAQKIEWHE

[4] = in vitro; conditions: human, Caco-2
Method: (§1) Caco-2 cell plates were obtained commercially and were maintained for 21 days at 37°C with 5% CO2. Cells were washed with Hank’s Balanced Salt Solution (HBSS) with 5 mM HEPES for 30 minutes before starting the experiment. Test compound solutions are prepared by diluting DMSO stock into HBSS buffer, resulting in a final DMSO concentration of 0.1%. Prior to the assay, cell monolayer integrity was verified by […] electrical resistance (TEER) to ensure that wells have resistance above the acceptance cut-off (1 kΩ). Transport experiments were initiated by adding test compounds to the apical (75 μl) or basal (250 μl) side. Transport plates were incubated at 37°C in a humidified incubator with 5% CO2. Samples were taken from the donor and acceptor compartments after one hour and analyzed by liquid chromatography with tandem mass spectrometry (LC/MS/MS) using an AB Sciex API 4000 instrument, coupled to a Shimadzu LC-20AD LC Pump system. Samples were separated using a Waters Atlantis T3 dC18 reverse phase HPLC column (20 mm × 2.1 mm) at a flow rate of 0.5 ml/min. The mobile phase consisted of 0.1% formic acid in acetonitrile (solvent A) and 0.1% formic acid in water (solvent B).
(§2) Apparent permeability (Papp) values were calculated using the following equation: Papp=(dQ/dt)/A/C0 where dQ/dt is the initial rate of compound transport across the cell monolayer, A is the surface area of the filter membrane, and C0 is the initial concentration of the test compound, calculated for each direction using a four-point calibration curve by LC/MS/MS.
(§3) Net flux ratio between the two directional transports was calculated by the following equation: Ratio=PappB-A/PappA-B where PappB-A and PappA-B represent the apparent permeability of compounds from the basal-to-apical and apical-to-basal side of the cellular monolayer, respectively. Recovery was calculated based on the compound concentration at the end of the experiment, compared to that at the beginning of the experiment, adjusted for volumes.

[5] = tested on: Caco-2 cells; assay: in vitro; conditions: human, Caco-2, 1 h
Method: as §1, §2, §3

[6] = biological target: SARS-CoV-2 NSP3 macrodomain (Mac1) (Severe acute respiratory syndrome coronavirus 2, UniProt P0DTD1); assay: biochemical; assay type: binding; conditions: for SARS CoV-2 macrodomain HTRF assay: Hillslope: dose-response fit
[7] = biological target: SARS-CoV-2 NSP3 macrodomain (Mac1), P43 crystal form (Severe acute respiratory syndrome coronavirus 2, UniProt P0DTD1); assay type: binding; conditions: for 1-BDC: PanDDA background density correction; for PanDDA run, DMSO background map: 1-BDC: event 1; for Total number of conformations: ligand conformations modeled in Mac1 crystal structure; for 2*(1-BDC) (%): occupancy estimate from PanDDA BDC; for X-ray crystallography: Binding site: site where the ligand is bound in the X-ray crystal structure
[8] = crystal soak concentration 10 mM, DMSO background map
[9] = crystal soak concentration 10 mM, P43 crystals
[10] = crystal soak 10 mM, DMSO background map

Structure (SMILES)	Occupancy difference (refined_occupancy - 2*(1-BDC)) [7]	Refined ligand occupancy (%) [7]	1-BDC [7]	PanDDA run, DMSO background map: 1-BDC [7, 8]	Pandda run, overall: Hit [7, 9]	Pandda run, overall: Modeling comment [7, 9]	PanDDA run, DMSO background map: Hit [7, 8]	Total number of conformations [7]	2*(1-BDC) (%) [7]	Hill slope ([6]; HTRF dose-response fit, Mac1)	also measured
Nc1ncnc2c1ncn2[C@@H]1O[C@H](COP(=O)(O)OP(=O)(O)OC[C@H]2O[C@@H](O)[C@H](O)[C@@H]2O)[C@@H](O)[C@H]1O.[Na].[Na] [ADP-ribose, reference compound]											Hill slope ([1]; HTRF dose-response fit, Targ1): 1.5
CC(C)[C@H](CO)Nc1ncnc2[nH]ccc12 [AVI-1504, (2R)-3-Methyl-2-({7H-pyrrolo[2,3-d]pyrimidin-4-yl}amino)butan-1-ol]											CLint (mouse) (µl/min/mg protein), mean ([2]; mouse microsome stability): <11.6 µl/min/mg protein
Cc1c[nH]c2ncnc(NCC3(O)CCCCC3)c12 [AVI-3761, 1-(((5-methyl-7H-pyrrolo[2,3-d]pyrimidin-4-yl)amino)methyl)cyclohexan-1-ol]											IC50 [3]: > 1000 µM; binding to the human macrodomain MacroD2 [3]: none; IC50 [1]: > 1000 µM; binding to the human macrodomain Targ1 [1]: none; Papp A→B at 1 h [4]: 21.5 ×10⁻⁶ cm/s; Papp B→A at 1 h [4]: 11.2 ×10⁻⁶ cm/s; Recover Rate (%) [5]: 86%; T1/2 (min), mean ([2]; mouse microsome stability): 7.49 min; half-life at 1 µM ([2]; mouse, microsomes, pH 7.4, 1 μM compound, 0.5 mg/ml microsomal protein, read-out: Mouse microsome T1/2): 7.49 min; microsomal CLint at 1 µM ([2]; pH 7.4, mouse microsomes, read-out: CLint (mouse)): 185 µL/min/mg
Cc1c[nH]c2ncnc(NCC3(O)CCC(O)CC3)c12 (stereo not shown) [AVI-4329]	12	30%	0.09	0.09 and 0.11	TRUE	Duplicate, not modeled	TRUE	2	18%		IC50 ([6]; dose-response, read-out: SARS CoV-2 macrodomain HTRF assay: IC50): > 1000 µM; Pandda run, overall: Modeled [7, 9]: TRUE; PanDDA run, DMSO background map: Modeled [7, 8]: TRUE; X-ray crystallography: Binding site [7]: Adenosine
Cc1c[nH]c2ncnc(NCC3(O)CCC(C)(C)CC3)c12 [AVI-4330]				0.11	TRUE	Weak density, not modeled	TRUE			1.3	SARS CoV-2 macrodomain HTRF assay: Hillslope [6]: 1.3
Cc1c[nH]c2ncnc(NCC3(O)CCC(C)CC3)c12 (stereo not shown) [AVI-4331]	0	54%	0.27	0.23	TRUE	Duplicate, not modeled	TRUE	1	54%	1.2	SARS CoV-2 macrodomain HTRF assay: Hillslope [6]: 1.2; Pandda run, overall: Hit ([7]; crystal soak 10 mM, P43 crystals, TRUE = ligand identified by PanDDA): TRUE; PanDDA run, DMSO background map: Hit [7, 10]: TRUE; PanDDA run, DMSO background map: 1-BDC [7, 10]: 0.27; X-ray crystallography: Binding site [7]: Adenosine
CC(C)(CO)Nc1ncnc2[nH]ccc12 [AVI-5266]	16	40%	0.12					1	24%	1.1	Hill slope ([6]; SARS CoV-2 macrodomain HTRF assay, dose-response): 1.1; inhibition at 200 µM ([6]; Single dose, concentration 200 μM, read-out: Average % competition): 56%; inhibition at 200 µM ([6]; preliminary screen, compound at 200 μM, mean of 3-4 technical replicates, read-out: % competition in HTRF assay): 56%; PanDDA run, DMSO background map: 1-BDC ([7]; DMSO background map): 0.12; X-ray crystal structure ([7]; X-ray crystal structure determined (TRUE)): TRUE; Binding site ([7]; site of ligand in X-ray crystal structure): Adenosine
